In patent publication US20240216354A1, “IMMUNOMODULATORY IMIDE DRUGS AS ZETA-CHAIN-ASSOCIATED PROTEIN KINASE 70 (ZAP70) AGONISTS AND USES THEREOF” (Dana-Farber Cancer Institute, Inc., priority 2019, published 2024):

What was measured:
U266 cells [1] = experiment: KHYG-1 NK cell cytotoxicity against calcein-AM-labeled U266 cells; format: cell-based; conditions: KHYG-1 cells, pomalidomide 0.25-1 μM 24 h, then 4 h with U266 at indicated E/T ratios
Experimental: KHYG-1 cells were cultured with pomalidomide (0.25-1 μM) for 24 h. (A) Whole cell lysates were subjected to immunoblotting using indicated Abs. (B) KHYG-1 cells were incubated with calcein-AM-stained U266 cells for 4 h at the indicated effector/target (E/T) ratios. Percent specific lysis was calculated as described previously. (C) KHYG-1 cells were transfected with Scsi or Zap-70si, and then cultured with pomalidomide (0.25 μM) for 72 h in the absence of IL-2. Viable cell number was determined, and cells were then incubated with calcein AM-labeled U266 target cells for 4 h at indicated effector/target (E/T) ratios. Percent specific lysis was calculated as described previously. […] Cell growth was assessed by MTT assay. […] Percent specific lysis was calculated as previously described.
(A) KHYG-1 cells were transfected with Scsi or CRBNsi. […] Cells were counted and incubated with calcein AM-labeled U266 for 4 h at indicated effector/target (E/T) ratios.
(A, B) KHYG-1 cells were transfected with scrambled (Sc) or Zap-70 siRNAs, and then cultured for 72 h with lenalidomide (0.5 μM), in the absence of IL-2 (A) The viable cell number was measured by trypan-blue dye exclusion. […] Percent specific lysis was calculated as described previously. *: p<0.01 compared with Scsi.
KHYG-1 cells were transfected with scrambled (Sc) or IKZF3 siRNAs. […] Percent specific lysis was calculated as previously described. […]

Zap-70 = target: T1, Zap-70 (Homo sapiens, UniProt P43403); experiment: Immunoblotting of p-Zap-70 in primary NK cells from healthy volunteers; format: cell-based; set-up: endogenous in cells; host or cells: primary PBMCs, primary T cells and primary NK cells from healthy volunteers; conditions: primary NK cells #1-#4, pomalidomide 0.5 μM, 24 h
T1 sequence (P43403 1-619): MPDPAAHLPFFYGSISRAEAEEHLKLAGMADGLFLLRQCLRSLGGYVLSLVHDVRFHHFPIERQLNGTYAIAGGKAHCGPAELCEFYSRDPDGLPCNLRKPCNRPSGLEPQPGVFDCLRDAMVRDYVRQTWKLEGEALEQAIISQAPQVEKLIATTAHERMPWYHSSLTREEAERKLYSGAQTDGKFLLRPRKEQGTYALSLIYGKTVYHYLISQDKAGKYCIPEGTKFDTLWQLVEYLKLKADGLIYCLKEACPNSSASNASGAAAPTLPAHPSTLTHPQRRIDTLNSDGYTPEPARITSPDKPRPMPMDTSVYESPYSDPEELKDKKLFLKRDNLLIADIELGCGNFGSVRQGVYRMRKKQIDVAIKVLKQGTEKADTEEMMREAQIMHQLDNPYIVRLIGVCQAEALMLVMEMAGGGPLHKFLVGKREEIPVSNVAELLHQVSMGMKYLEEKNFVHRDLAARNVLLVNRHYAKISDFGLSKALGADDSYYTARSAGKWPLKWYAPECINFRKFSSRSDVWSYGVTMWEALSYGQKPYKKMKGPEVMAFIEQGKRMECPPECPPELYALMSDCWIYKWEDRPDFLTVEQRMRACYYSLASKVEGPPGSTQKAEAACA
Experimental: (§1) KHYG-1 cells were cultured with pomalidomide (0.25-1 μM) for 24 h. (A) Whole cell lysates were subjected to immunoblotting using indicated Abs. (B) KHYG-1 cells were incubated with calcein-AM-stained U266 cells for 4 h at the indicated effector/target (E/T) ratios. Percent specific lysis was calculated as described previously. (C) KHYG-1 cells were transfected with Scsi or Zap-70si, and then cultured with pomalidomide (0.25 μM) for 72 h in the absence of IL-2. Viable cell number was determined, and cells were then incubated with calcein AM-labeled U266 target cells for 4 h at indicated effector/target (E/T) ratios. Percent specific lysis was calculated as described previously. (D) After transfection with Scsi or Zap-70si, cells were cultured with lenalidomide or pomalidomide for 72 h. Cell growth was assessed by MTT assay. (E) KHYG-1 cells were transfected with scrambled (Scsi) or CRBNsi. The transfectants were then cultured with pomalidomide (0.5 μM) for 24 h, and whole cell lysates were subjected to immunoblotting using indicated Abs. The arrow indicates CRBN expression. (F) Primary NK cells (#1, #2, #3, #4) were isolated from healthy volunteer's PBMCs, as described in Materials and Methods. NK cells were cultured with pomalidomide (0.5 μM) for 24 h, and whole cell lysates were subjected to immunoblotting using indicated Abs. […] Percent specific lysis was calculated as previously described.

U266 cells [2] = experiment: Primary NK cell cytolytic activity against calcein AM-labeled U266; format: cell-based, human; conditions: primary NK cells #1, #2, pomalidomide 0.25-1 μM 24 h, E/T 5/1 and 10/1
Experimental: as §1

p-Zap-70 (immunoblotting) (Zap-70): upregulated p-Zap-70 in primary NK cells
SMILES: Nc1cccc2c1C(=O)N(C1CCC(=O)NC1=O)C2=O (stereo not drawn) [pomalidomide]
cytotoxicity against U266 cells (percent specific lysis) (U266 cells [1]): increased their cytotoxicity against U266 cells in a dose-dependent fashion
NK cytolytic activity against U266 cells (U266 cells [2]): significantly enhanced their NK cytolytic activity against U266 cells
